Series [1] addresses T1, aaTHEP1 (Aquifex aeolicus, UniProt O67322).
T1 sequence (O67322 1-178): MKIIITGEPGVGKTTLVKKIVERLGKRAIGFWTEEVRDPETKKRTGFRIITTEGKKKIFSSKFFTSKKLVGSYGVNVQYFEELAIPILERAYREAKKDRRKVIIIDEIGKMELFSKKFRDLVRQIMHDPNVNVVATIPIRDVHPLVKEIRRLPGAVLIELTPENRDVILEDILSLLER
Nature of the series: inhibition of [γ-32P]ATP hydrolysis, TLC on PEI-cellulose. It counts as biochemical.

Series [2] deals with T1, aaTHEP1. As to the kind of experiment: inhibition of [γ-32P]ATP hydrolysis, TLC autoradiography. It counts as biochemical. The conditions noted are these: 5 and 1000 μM ATP, 5 and 1000 μM GDP, 70°C, 5 min.
Substrate in series [3]: Nc1ncnc2c1ncn2[C@@H]1O[C@H](COP(=O)(O)OP(=O)(O)OP(=O)(O)O)[C@@H](O)[C@H]1O
As to the kind of experiment: purified protein. The conditions noted are these: 70°C, 25 mM MgCl2, 5 mM KCl, pH 7.0, labelled compound.

Here are results for 9 molecules from publication PMC222928 (BMC Biochemistry, 2003).

Take `Nc1ccn([C@H]2C[C@H](O)[C@@H](COP(=O)(O)OP(=O)(O)OP(=O)(O)O)O2)c(=O)n1` [dCTP]: the affinity in series [1], expressed as Ki, was 9 ± 3 µM. For `Cc1cn([C@H]2C[C@H](O)[C@@H](COP(=O)(O)OP(=O)(O)OP(=O)(O)O)O2)c(=O)[nH]c1=O` [dTTP], the affinity in series [1], expressed as Ki, was 6 ± 2 µM. For `O=c1ccn([C@@H]2O[C@H](COP(=O)(O)OP(=O)(O)OP(=O)(O)O)[C@@H](O)[C@H]2O)c(=O)[nH]1` [UTP], the affinity in series [1] corresponds to a Ki of 5 ± 2 µM. Regarding `Nc1ccn([C@@H]2O[C@H](COP(=O)(O)OP(=O)(O)OP(=O)(O)O)[C@@H](O)[C@H]2O)c(=O)n1` [CTP], the Ki (in general, a measure of affinity in units of concentration, obtained from inhibition or displacement) in series [1] was 6 ± 2 µM. `Nc1nc2c(ncn2[C@@H]2O[C@H](COP(=O)(O)OP(=O)(O)OP(=O)(O)O)[C@@H](O)[C@H]2O)c(=O)[nH]1` [GTP] registered a Ki in series [1] of 57 ± 20 µM.

On to `Nc1nc2c(ncn2[C@H]2C[C@H](O)[C@@H](COP(=O)(O)OP(=O)(O)OP(=O)(O)O)O2)c(=O)[nH]1` [dGTP], for which affinity in series [1] was put at a Ki of 18 ± 2 µM. As to `Nc1nc2c(ncn2[C@@H]2O[C@H](COP(=O)(O)OP(=O)(O)O)[C@@H](O)[C@H]2O)c(=O)[nH]1` [GDP], in series [2], the “inhibition of [γ-32P]ATP hydrolysis, TLC autoradiography” value was “GDP also inhibits ATP-hydrolysis, whereas GMP, AMP, and UMP show no inhibition”.

In the case of `Nc1ncnc2c1ncn2[C@H]1C[C@H](O)[C@@H](COP(=O)(O)OP(=O)(O)OP(=O)(O)O)O1` [dATP], the Ki in series [1] came out at 3 ± 0.2 µM.

B1: aaTHEP1 (Aquifex aeolicus VF5) (protein)
chain: MKIIITGEPGVGKTTLVKKIVERLGKRAIGFWTEEVRDPETKKRTGFRIITTEGKKKIFSSKFFTSKKLVGSYGVNVQYFEELAIPILERAYREAKKDRRKVIIIDEIGKMELFSKKFRDLVRQIMHDPNVNVVATIPIRDVHPLVKEIRRLPGAVLIELTPENRDVILEDILSLLER
On to B1, for which, in series [3], the Km (in general, the concentration of substrate that gives half-maximal velocity) turned out to be 5.5 µM; the kcat (as a rule, the number of substrate molecules converted per active site and unit of time at saturation) is 0.005 s⁻¹.
